Data taken from ChEMBL document CHEMBL1128054, “The synthesis of pyrazolo[4,3-c]- and imidazo[4,5-c]-Aryl[e]fused pyridines as structural analogues of 4-aminonicotinoates” (Bioorg Med Chem Lett, 1995).
pIC50: −log10 of the molar value.

target: GABA-A receptor; anion channel; assay: Inhibition of [35S][…] (TBPS) binding to Gamma-aminobutyric acid receptor; assay type: protein-complex assay

pIC50 | SMILES
5.70 | CCCOC(=O)c1c(C)nc2c(c1N)c1ccccc1n2C
5.20 | Cc1nc2sc3c(c2c2ncn(CCC4CC4)c12)CCC1(C3)OCCO1
6.11 | C#CCOC(=O)c1c(C)nc2sc3c(c2c1N)CCC1(C3)OCCO1
5.85 | Cc1nc2sc3c(c2c(N)c1C(=O)OCc1ccccc1)CCC1(C3)OCCO1
6.62 | Cc1nc2sc3c(c2c(N)c1C(=O)OCCC1CC1)CCC1(C3)OCCO1
5.05 | Cc1nc2sc3c(c2c2ncn(CC4CC4)c12)CCC1(C3)OCCO1
< 4.00 | Cc1[nH]c2sc3c(c2c2ncnc1-2)CCC1(C3)OCCO1
5.70 | CCOC(=O)c1c(C)nc2c(c1N)c1ccccc1n2C
5.70 | COC(=O)c1c(C)nc2c(c1N)c1ccccc1n2C
5.57 | Cc1nc2sc3c(c2c2ncn(CCc4ccc(Cl)cc4)c12)CCC1(C3)OCCO1
< 4.00 | Cc1nc2sc3c(c2c2nn(Cc4ccccc4)c(O)c12)CCC1(C3)OCCO1
6.06 | Cc1nc2sc3c(c2c(N)c1C(=O)OCC1CC1)CCC1(C3)OCCO1
6.51 | Cc1nc2sc3c(c2c(N)c1C(=O)OCc1ccc(Cl)cc1)CCC1(C3)OCCO1
4.79 | CCOC(=O)c1c(C)nc2sc3c(c2c1N)CCC1(C3)OCCO1
6.49 | C#CCCOC(=O)c1c(C)nc2sc3c(c2c1N)CCC1(C3)OCCO1
